US20020156068A1, “Anti-psychosis combination” (priority 2001, published 2002)
Structures can show the parent of a compound that is named as a salt.

Tested on: MK-801-induced hyperactivity
Test: Antagonism of MK801-induced hyperlocomotion (locomotor activity cages)
Assay type: in vivo, rat
Settings: 180 min; for MK-801-induced hyperactivity as measured by a decrease in ambulation: male Sprague-Dawley rats, AR116081 10 or 20 mg/kg oral, each alone; for MK-801-induced hyperactivity as measured by a decrease in ambulation / effect of MK801 on fine movements, a measure of stereotypies / effect on rear measures (rearing activity): Haloperidol 0.05 mg/kg s.c., MK-801 0.3 mg/kg s.c.; for effect of MK801 on fine movements, a measure of stereotypies / effect on rear measures (rearing activity): AR116081 20 mg/kg oral, alone or combined
Experimental: Antagonism of MK801-Induced Hyperlocomotion: a Model of Potential Antipsychotic (“antipositive”) Activity
Because part of the symptomatology of schizophrenia may be related to altered glutamate transmission at the NMDA receptor, the reversal of MK-801-induced hyperlocomotor activity in rodents has been used routinely as an animal model for detecting potential antipsychotic activity (Hoffinan, D. C., J. Neural. Transm. 89:1-10, 1992).
Motor function was assessed using automated locomotor activity cages (Hamilton-Kinder, San Diego) comprised of standard rodent cages surrounded by photocell beams, allowing for automated recording of motor activity. The animals were under no motivational constraints and were free to move around the cages. In this test, male Sprague-Dawley rats (200-325 g body weight) were food deprived overnight prior to testing. On the testing day, they were administered AR116081 orally at a dose of 10 or 20 mg/kg base (substance # 127190 suspended in 1% Tween 80 and 99% distilled water solution, volume injection 10 cc/kg) immediately followed by subcutaneous administration of Haloperidol at a dose of 0.05 mg/kg base (RBI lot # TOW-1990 dissolved in distilled water and pH at 5-6, volume injection 1 cc/kg). The treated rats were placed in the locomotor activity cages 30 min after co-administration of compounds for a 30 min habituation period to the cages and recording of basal locomotor activity. Animals then received (via subcutaneous administration) (+)-MK801 hydrogen maleate at a dose of 0.3 mg/kg salt (RBI/Sigma Lot #108H4705 dissolved in saline, volume injection 1 cc/kg). The rats were immediately placed back into the locomotor activity cages, and activity was measured for 180 min.

In the case of `Cn1ncc(Br)c1-c1cccc(NC(=O)Nc2ccc(Cl)cc2)c1` [AR116081, N-[3-(4-bromo-2-methylpyrazol-3-yl)phenyl][(4-chlorophenyl)amino]carboxamide], the “MK-801-induced hyperactivity as measured by a decrease in ambulation” value is reported as “attenuated”, the “effect of MK801 on fine movements, a measure of stereotypies” value (rats) is reported as “attenuated but did not significantly reverse” and the “effect on rear measures (rearing activity)” value (rats) is reported as “No effects”.
For `O=C(CCCN1CCC(O)(c2ccc(Cl)cc2)CC1)c1ccc(F)cc1` [Haloperidol], the “MK-801-induced hyperactivity as measured by a decrease in ambulation” value was “attenuated”, the “effect of MK801 on fine movements, a measure of stereotypies” value (rats) was “attenuated but did not significantly reverse” and the “effect on rear measures (rearing activity)” value (rats) was “No effects”.
In the case of `C[C@]12N[C@H](Cc3ccccc31)c1ccccc12` [MK-801, (+)-MK801 hydrogen maleate], the “motor parameters recorded: ambulation, fine movement and rearing activity” value (rats, MK-801 0.3 mg/kg s.c. alone) is reported as “significant increase”.
